The source of these data is paper PMC6720883, “In Vitro Inhibitory Effects of APINACA on Human Major Cytochrome P450, UDP-Glucuronosyltransferase Enzymes, and Drug Transporters” (Molecules, 2019).

The target of one data set is T1, BCRP (Homo sapiens, UniProt Q9UNQ0).
T1 sequence (Q9UNQ0 1-655): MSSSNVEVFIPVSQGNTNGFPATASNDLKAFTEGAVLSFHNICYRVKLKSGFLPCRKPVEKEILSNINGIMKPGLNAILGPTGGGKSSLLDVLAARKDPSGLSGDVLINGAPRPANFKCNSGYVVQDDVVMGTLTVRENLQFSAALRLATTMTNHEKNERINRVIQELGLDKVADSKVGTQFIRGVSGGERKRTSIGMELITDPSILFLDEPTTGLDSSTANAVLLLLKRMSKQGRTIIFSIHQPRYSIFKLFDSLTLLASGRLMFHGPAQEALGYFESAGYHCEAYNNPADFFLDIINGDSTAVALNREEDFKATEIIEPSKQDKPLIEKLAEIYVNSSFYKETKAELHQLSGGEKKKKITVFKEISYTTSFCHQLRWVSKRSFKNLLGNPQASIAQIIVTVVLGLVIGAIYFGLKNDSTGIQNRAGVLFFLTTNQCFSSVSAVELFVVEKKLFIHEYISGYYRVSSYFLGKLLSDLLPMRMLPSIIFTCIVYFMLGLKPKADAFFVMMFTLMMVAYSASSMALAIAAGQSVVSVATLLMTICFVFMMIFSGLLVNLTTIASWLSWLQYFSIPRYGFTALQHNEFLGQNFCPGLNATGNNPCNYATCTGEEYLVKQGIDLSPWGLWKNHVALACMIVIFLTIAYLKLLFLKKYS
The data set can be described thus: B to A transport of [3-H]estrone-3-sulfate in LLC-PK1-BCRP cells. The following applies: for Transport Rate (pmol/min) (mean ± SD): 0.1 μM probe substrate, B to A, n=3. The class given is in vitro ADME.

The target in the next data set is T2, UGT1A9 (Homo sapiens, UniProt O60656).
T2 sequence (O60656 26-530): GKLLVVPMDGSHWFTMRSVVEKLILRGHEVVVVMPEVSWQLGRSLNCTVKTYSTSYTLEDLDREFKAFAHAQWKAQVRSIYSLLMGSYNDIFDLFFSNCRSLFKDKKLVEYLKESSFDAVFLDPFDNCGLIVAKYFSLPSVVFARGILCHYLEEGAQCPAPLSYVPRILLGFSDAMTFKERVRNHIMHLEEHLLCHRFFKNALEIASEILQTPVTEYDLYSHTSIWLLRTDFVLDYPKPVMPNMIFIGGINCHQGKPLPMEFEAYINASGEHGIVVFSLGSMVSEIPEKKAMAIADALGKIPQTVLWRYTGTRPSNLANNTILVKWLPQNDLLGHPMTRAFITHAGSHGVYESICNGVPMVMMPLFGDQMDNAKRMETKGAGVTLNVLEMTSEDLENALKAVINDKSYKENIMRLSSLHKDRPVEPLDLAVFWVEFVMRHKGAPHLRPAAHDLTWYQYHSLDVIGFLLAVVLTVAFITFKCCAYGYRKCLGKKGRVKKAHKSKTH
The following applies: cited from earlier work.

The next data set has as its target T3, OCT1 (Homo sapiens, UniProt O15245).
T3 construct: host or cells: HEK293 (transient overexpression)
T3 sequence (O15245 1-554): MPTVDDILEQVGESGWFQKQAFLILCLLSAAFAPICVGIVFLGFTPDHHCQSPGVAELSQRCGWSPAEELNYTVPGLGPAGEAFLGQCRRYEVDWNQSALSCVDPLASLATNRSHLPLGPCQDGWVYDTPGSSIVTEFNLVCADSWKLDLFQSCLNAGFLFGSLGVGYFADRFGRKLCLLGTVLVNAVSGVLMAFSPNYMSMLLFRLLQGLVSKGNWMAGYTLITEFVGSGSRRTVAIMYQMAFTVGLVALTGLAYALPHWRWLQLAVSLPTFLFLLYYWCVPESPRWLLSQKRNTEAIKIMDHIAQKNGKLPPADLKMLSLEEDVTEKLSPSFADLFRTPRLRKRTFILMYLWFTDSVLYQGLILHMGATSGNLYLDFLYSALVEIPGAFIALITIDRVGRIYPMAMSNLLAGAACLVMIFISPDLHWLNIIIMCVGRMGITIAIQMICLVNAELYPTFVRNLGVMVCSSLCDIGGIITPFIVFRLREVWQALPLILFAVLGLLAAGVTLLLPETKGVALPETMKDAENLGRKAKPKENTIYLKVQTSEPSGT
The data set is described as follows: Uptake of [3-H]methyl-4-phenylpyridinium in HEK293-OCT1 cells. The following applies: for Transport Rate (pmol/min) (mean ± SD): 0.1 μM probe substrate, n=3. The class given is in vitro ADME. The protocol:
(§1) To examine the effects of APINACA and typical inhibitors on transporter activity, the uptake of a probe substrate into HEK293 cells overexpressing the respective solute carrier transporters was measured in the presence of APINACA (final concentrations of 0–250 μM) or typical inhibitors for 5 min. The concentrations and probe substrates were selected as follows: 0.1 μM [3-H]MPP^+ (for OCT1 and OCT2), 0.1 μM [3-H]PAH (for OAT1), 0.1 μM [3-H]ES (for OAT3 and OATP1B1), and 0.1 μM [3-H]EG (for OATP1B3).
(§2) 12.5 (Systat Software, Inc.; San Jose, CA, USA). […] 1.1 (Systat Software, Inc.).

The target in another data set is T4, OCT2 (Homo sapiens, UniProt O15244).
T4 construct: host or cells: HEK293 (transient overexpression)
T4 sequence (O15244 1-555): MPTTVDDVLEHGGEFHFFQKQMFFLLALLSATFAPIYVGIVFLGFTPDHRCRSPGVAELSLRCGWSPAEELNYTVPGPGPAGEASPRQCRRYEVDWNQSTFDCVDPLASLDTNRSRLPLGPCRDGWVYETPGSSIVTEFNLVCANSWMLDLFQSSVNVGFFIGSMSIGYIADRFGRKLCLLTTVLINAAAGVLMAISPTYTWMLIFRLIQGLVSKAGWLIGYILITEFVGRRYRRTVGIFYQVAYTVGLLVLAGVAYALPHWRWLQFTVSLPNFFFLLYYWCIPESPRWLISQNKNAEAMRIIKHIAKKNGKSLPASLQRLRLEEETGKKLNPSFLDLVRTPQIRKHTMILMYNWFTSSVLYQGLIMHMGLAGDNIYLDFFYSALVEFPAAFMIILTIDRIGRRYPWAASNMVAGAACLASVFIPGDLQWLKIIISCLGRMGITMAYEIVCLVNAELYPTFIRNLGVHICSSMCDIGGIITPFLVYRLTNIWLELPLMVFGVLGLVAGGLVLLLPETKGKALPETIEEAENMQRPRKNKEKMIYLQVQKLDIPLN
The data set is described as follows: Uptake of [3-H]methyl-4-phenylpyridinium in HEK293-OCT2 cells. Conditions: for Transport Rate (pmol/min) (mean ± SD): 0.1 μM probe substrate, n=3. The class given is in vitro ADME. The protocol: as §1, §2

The target of another data set is T5, OAT3 (Homo sapiens, UniProt Q8TCC7).
T5 construct: host or cells: HEK293 (transient overexpression)
T5 sequence (Q8TCC7 1-542): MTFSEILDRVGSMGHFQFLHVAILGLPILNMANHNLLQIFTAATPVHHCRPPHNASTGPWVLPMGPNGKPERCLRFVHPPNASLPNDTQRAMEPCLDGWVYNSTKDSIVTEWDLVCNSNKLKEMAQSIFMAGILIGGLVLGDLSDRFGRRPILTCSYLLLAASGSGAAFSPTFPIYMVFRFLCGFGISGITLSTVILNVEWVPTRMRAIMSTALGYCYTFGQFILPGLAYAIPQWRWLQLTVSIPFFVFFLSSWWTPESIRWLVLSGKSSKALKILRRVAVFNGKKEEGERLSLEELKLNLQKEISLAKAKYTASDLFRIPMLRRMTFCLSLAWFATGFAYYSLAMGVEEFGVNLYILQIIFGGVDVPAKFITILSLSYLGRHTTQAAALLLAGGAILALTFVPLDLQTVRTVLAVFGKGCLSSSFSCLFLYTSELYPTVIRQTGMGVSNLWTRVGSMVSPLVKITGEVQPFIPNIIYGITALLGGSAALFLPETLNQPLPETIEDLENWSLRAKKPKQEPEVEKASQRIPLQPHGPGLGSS
The data set is described as follows: Uptake of [3-H]estrone-3-sulfate in HEK293-OAT3 cells. The class given is in vitro ADME. Conditions: for Transport Rate (pmol/min) (mean ± SD): 0.1 μM probe substrate, n=3. How it is done: The concentrations and probe substrates were selected as follows: 0.1 μM [3-H]MPP^+ (for OCT1 and OCT2), 0.1 μM [3-H]PAH (for OAT1), 0.1 μM [3-H]ES (for OAT3 and OATP1B1), and 0.1 μM [3-H]EG (for OATP1B3).
(§3) 1.1 (Systat Software, Inc.).

In a further data set the target is T6, OATP1B1 (Homo sapiens, UniProt Q9Y6L6).
T6 construct: host or cells: HEK293 (transient overexpression)
T6 sequence (Q9Y6L6 1-691): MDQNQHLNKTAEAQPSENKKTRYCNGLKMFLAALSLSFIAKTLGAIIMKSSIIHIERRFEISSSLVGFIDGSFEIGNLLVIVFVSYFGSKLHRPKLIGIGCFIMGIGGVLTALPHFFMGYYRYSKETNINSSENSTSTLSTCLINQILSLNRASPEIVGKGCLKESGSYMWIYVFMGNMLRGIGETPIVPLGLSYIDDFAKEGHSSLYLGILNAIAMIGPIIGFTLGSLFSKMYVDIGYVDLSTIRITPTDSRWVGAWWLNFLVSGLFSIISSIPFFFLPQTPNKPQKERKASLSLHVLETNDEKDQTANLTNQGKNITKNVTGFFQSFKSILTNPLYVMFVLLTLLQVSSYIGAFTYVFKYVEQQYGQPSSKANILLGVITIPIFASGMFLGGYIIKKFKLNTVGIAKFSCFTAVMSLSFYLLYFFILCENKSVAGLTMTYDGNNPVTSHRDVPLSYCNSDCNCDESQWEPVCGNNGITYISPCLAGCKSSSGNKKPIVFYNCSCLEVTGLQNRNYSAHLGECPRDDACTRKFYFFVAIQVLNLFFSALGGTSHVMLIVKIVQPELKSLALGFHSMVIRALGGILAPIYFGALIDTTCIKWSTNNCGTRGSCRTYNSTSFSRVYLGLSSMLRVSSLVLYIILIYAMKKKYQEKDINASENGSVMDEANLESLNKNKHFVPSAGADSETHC
The data set can be described thus: Uptake of [3-H]estrone-3-sulfate in HEK293-OATP1B1 cells. The format is in vitro ADME. Conditions: for Transport Rate (pmol/min) (mean ± SD): 0.1 μM probe substrate, n=3. The protocol: as §1, §2

Another data set has as its target P-glycoprotein (P-gp) (Homo sapiens, UniProt P08183). The data set is described as follows: B to A transport of [3-H]digoxin in LLC-PK1-MDR1 cells. The following applies: for Transport Rate (pmol/min) (mean ± SD): 0.1 μM probe substrate, B to A, n=3. The protocol:
The cells were seeded onto filter membranes at a density of 2 × 10^5 cells/well for 5 days with TEER values over 450 Ω·cm^2. The B to A transport of 0.1 μM [3-H]digoxin in LLC-PK1-MDR1 cells was measured by adding 1.5 mL of HBSS containing APINACA (final concentrations of 0–100 μM) on the basal side and by adding 0.5 mL of HBSS without APINACA on the apical side of the insert using protocols identical to those described above.
as §3

For orientation: IC50 means the concentration needed to halve the response being measured. For orientation: Ki means the equilibrium dissociation constant of an inhibitor or competing ligand from its target.

Chain of P-glycoprotein (P-gp) (P08183 whole entry): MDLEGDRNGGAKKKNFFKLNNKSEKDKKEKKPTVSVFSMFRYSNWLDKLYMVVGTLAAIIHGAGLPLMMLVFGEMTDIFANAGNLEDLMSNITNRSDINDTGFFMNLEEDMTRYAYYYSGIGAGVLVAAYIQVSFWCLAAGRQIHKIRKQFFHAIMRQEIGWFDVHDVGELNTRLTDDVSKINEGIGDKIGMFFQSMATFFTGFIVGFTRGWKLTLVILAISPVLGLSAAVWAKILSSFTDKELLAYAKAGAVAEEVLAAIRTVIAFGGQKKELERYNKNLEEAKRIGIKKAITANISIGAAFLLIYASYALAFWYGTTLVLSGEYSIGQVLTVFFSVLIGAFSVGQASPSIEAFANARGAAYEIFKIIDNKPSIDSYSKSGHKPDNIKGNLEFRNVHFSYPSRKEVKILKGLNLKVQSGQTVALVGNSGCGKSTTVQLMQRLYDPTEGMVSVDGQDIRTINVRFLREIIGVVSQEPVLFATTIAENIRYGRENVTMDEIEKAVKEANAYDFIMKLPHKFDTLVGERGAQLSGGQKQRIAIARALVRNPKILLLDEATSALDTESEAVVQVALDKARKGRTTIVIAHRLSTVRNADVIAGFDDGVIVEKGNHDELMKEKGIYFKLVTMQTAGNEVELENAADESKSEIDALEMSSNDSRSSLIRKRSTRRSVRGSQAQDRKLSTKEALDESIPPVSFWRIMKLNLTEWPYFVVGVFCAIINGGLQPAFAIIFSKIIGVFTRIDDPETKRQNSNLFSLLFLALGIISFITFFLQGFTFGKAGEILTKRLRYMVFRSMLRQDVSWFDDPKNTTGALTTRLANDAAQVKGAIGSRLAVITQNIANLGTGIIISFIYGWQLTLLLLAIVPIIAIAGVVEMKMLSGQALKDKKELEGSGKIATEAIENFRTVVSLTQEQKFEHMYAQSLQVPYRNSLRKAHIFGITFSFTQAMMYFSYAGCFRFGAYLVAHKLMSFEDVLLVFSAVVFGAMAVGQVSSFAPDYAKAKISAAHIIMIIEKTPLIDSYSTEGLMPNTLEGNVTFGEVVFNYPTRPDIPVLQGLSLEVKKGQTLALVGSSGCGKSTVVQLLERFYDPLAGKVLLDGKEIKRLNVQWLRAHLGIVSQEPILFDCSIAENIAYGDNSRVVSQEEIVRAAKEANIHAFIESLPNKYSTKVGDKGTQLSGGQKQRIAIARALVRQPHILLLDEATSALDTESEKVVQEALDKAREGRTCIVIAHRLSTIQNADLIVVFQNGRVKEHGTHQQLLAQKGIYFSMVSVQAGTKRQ

For the compound `O=C(O)c1cc(/N=N/c2ccc(S(=O)(=O)Nc3ccccn3)cc2)ccc1O` [sulfasalazine], the 50% inhibitory concentration (IC50) at BCRP (human, LLC-PK1-BCRP cell monolayers on filter membranes, probe [3H]estrone-3-sulfate (0.1 μM), LLC-PK1-BCRP cells, B to A transport of 0.1 μM [3-H]estrone-3-sulfate, read-out: IC50 for inhibition of BCRP transport) turned out to be 390 nM.

As for `CNC(=O)c1cc(Oc2ccc(NC(=O)Nc3ccc(Cl)c(C(F)(F)F)c3)c(F)c2)ccn1` [regorafenib], the inhibition constant Ki at UGT1A9 is 700 nM.

`C[n+]1ccc(-c2ccccc2)cc1` [Methyl-4-phenylpyridinium]: the “Fold Increase of transport rate” value on OCT1 (HEK293-OCT1 versus Mock) is 17.1; at OCT2 (HEK293-OCT2 versus Mock), 25.5. In addition, the “Transport Rate (pmol/min) (mean ± SD)” value was determined as 0.60 ± 0.09 pmol/min at OCT1 (HEK293 Mock cells (comparison for OCT1)), 10.24 ± 0.98 pmol/min on OCT1 (HEK293 cells overexpressing OCT1), 0.66 ± 0.11 pmol/min on OCT2 (HEK293 Mock cells (comparison for OCT2)) and 16.78 ± 0.43 pmol/min at OCT2 (HEK293 cells overexpressing OCT2).

For `C[C@]12CC[C@@H]3c4ccc(OS(=O)(=O)O)cc4CC[C@H]3[C@@H]1CCC2=O` [Estrone-3-sulfate], the “Fold Increase of transport rate” value at OAT3 (HEK293-OAT3 versus Mock) worked out at 15.3; on OATP1B1 (HEK293-OATP1B1 versus Mock), 16.5; on BCRP (LLC-PK1-BCRP versus Mock) it was 4.7. Moreover, the “Transport Rate (pmol/min) (mean ± SD)” value at OAT3 (HEK293 Mock cells (comparison for OAT3)) was 0.98 ± 0.20 pmol/min; on OAT3 (HEK293 cells overexpressing OAT3) it was 14.96 ± 3.09 pmol/min; at OATP1B1 (HEK293 Mock cells (comparison for OATP1B1)), 0.76 ± 0.04 pmol/min; at OATP1B1 (HEK293 cells overexpressing OATP1B1) it was 12.58 ± 1.57 pmol/min; on BCRP (LLC-PK1 Mock cells (comparison for BCRP)), 0.44 ± 0.07 pmol/min; at BCRP (LLC-PK1 cells overexpressing BCRP) it was 2.09 ± 0.12 pmol/min.

For the compound `C[C@H]1O[C@@H](O[C@H]2[C@@H](O)C[C@H](O[C@H]3[C@@H](O)C[C@H](O[C@H]4CC[C@@]5(C)[C@H](CC[C@@H]6[C@@H]5C[C@@H](O)[C@]5(C)[C@@H](C7=CC(=O)OC7)CC[C@]65O)C4)O[C@@H]3C)O[C@@H]2C)C[C@H](O)[C@@H]1O` [Digoxin], the “Fold Increase of transport rate” value at P-glycoprotein (P-gp) (LLC-PK1-MDR1 versus Mock) stood at 7.3. Besides, the entries for the “Transport Rate (pmol/min) (mean ± SD)” value at P-glycoprotein (P-gp) (LLC-PK1 Mock cells (comparison for MDR1)) and on P-glycoprotein (P-gp) (LLC-PK1 cells overexpressing MDR1 (P-gp)) were 0.14 ± 0.02 pmol/min and 1.06 ± 0.07 pmol/min, respectively.

In the case of `CN/C(=N/CCSCc1nc[nH]c1C)NC#N` [Cimetidine], the IC50 at OCT2 (HEK293-OCT2 cells, 0.1 μM [3-H]methyl-4-phenylpyridinium, 5 min uptake, read-out: IC50 for inhibition of OCT2 transport) was determined as 197000 nM.
